Test results reported in a melting point compilation (Tetko et al.; mined from patent text by program, amines drawn as free bases though some values may be those of a salt).

`C#CCN1C(=O)COc2cc(F)ccc21` gave a melting point of 98 to 100 °C.
Compound `CC1(C)CCc2c(N3CCCC3)nc3sc4c(NCCN5CCOCC5)ncnc4c3c2C1` has a melting point of 173 to 174 °C.
Work on `ON=Cc1cccc(Oc2ccccc2)c1` yielded a melting point of 45 to 46 °C.
For `NNC(=O)c1ccc(N2CCNC2=O)cc1`, the melting point was over 200 °C.
With `CC(C)(Oc1ccc(C(=O)c2ccccc2)cc1)C(=O)O` the melting point was 130 °C.
`CC(C)(C)c1ccc(OCCCCCCCCCCC(Cl)(Cl)C(=O)O)cc1` showed a melting point of 56 to 57 °C.
With `COc1cc(C2CCN(C(=O)OC(C)(C)C)CC2)cnc1COc1ccc(S(C)(=O)=O)cc1` the melting point was 153 to 154 °C.
`CC(C#CCOc1cccc(Oc2cccnc2)c1)N(O)C(N)=O` (stereo unspecified) gave a melting point of 131 to 132 °C.
`Cc1cc(C[C@@H](NC(=O)c2ccc(F)c3ccccc23)[C@@H](O)c2ccc(F)cc2)cc(OC(F)(F)C(F)F)c1` (racemic) showed a melting point of 189 to 190 °C.
`CCCN(CC(O)COc1ccc2c(=O)cc(-c3ccccc3)oc2c1)C(=O)OCc1ccccc1` (stereo unspecified) showed a melting point of 92 to 94 °C.
Work on `CC(C(=O)O)c1cccc(C(=O)c2cc3cc(C(=O)O)sc3s2)c1` (stereo unspecified) yielded a melting point of 244 °C.
With `CC1(C)C(C(=O)O)C1C(OS(C)(=O)=O)C(Br)(Br)Br` (stereo unspecified) the melting point was 168 °C.
Compound `CSCc1cc([N+](=O)[O-])ccc1N1C(=O)c2ccc(Cl)cc2C1=O` has a melting point of 112 to 115 °C.
`Cc1cc(-c2nncc3c(Br)c(OCc4ncnn4C)nn23)no1` showed a melting point of 239 to 241 °C.
Compound `CN(C)/C=N/c1nc(=O)n(C(=O)NCc2ccccc2)cc1F` has a melting point of 147 to 150 °C.
In the case of `OC(c1ccccc1)(c1ccncc1)c1ccc(F)cc1` (stereo unspecified), the melting point is reported as 189 to 192 °C.
For `CC(C)N1CCN(c2cccc(N)c2)C(=O)C1`, the melting point was 114 to 115 °C.
`COc1cccc(C(=O)Nc2ccc(C(=O)c3ccccc3)cc2)c1` gave a melting point of 139 to 141 °C.
For `COc1cc(C(O)c2ccccc2[N+](=O)[O-])c(Br)cn1` (stereo unspecified), the melting point was 128 to 131 °C.
For `CSc1nncc(-c2cccc(Cl)c2)n1`, the melting point was 79 to 81 °C.
With `Cc1c(C(=O)C(N)=O)c2c(OCC(=O)O)cc3c(c2n1Cc1ccccc1)CCCC3` the melting point was over 300 °C.
`Cc1cc(S(=O)(=O)F)ccc1Br` gave a melting point of 47 to 48 °C.
`COC(=O)[C@@H]1C[C@@H](O)CN1S(=O)(=O)c1ccc(Cl)c(COc2cccc3c(C)cc(C)nc23)c1Cl` showed a melting point of 100 °C.
For `CC(=O)c1ccc(OCC(C)(O)C(=O)Nc2ccc([N+](=O)[O-])c(C)c2)cc1` (stereo unspecified), the melting point was 153 to 155 °C.
For `CC(=O)c1cccc2nnsc12`, the melting point was 126 to 127 °C.
Work on `COc1cc(Nc2c(C#N)cnc3ccc(/C=C/CCN4CCOCC4)cc23)cc(OC)c1OC` yielded a melting point of 86 to 87 °C.
For `CN1C(=O)C2(COc3cc4c(cc32)OCCO4)c2c(NC(=O)C(C)(C)C)cccc21` (stereo unspecified), the melting point was 182 to 184 °C.
For `CS(=O)(=O)c1ccc(-c2cnn(CC=Cc3ccccc3)c(=O)c2-c2ccc(F)cc2)cc1`, the melting point was 165 to 167 °C.
In the case of `CCCCCCCCCCCCC1CC(=O)CCC1=O` (stereo unspecified), the melting point is reported as 73 °C.
For `Cc1ccc(-n2ccc3c(Cl)nn(C)c(=O)c32)c(C)c1`, the melting point was 119 to 120 °C.
In the case of `COC(=O)NNC(=O)CCc1ccccc1`, the melting point is reported as 118 °C.
`Cc1cc2c(cc1Br)N(C1CC1)C=NS2(=O)=O` gave a melting point of 219 to 220 °C.
Work on `COc1ccnc(CCc2nc3cc(-c4ccc(S(=O)(=O)N5CCC6(CC5)OCCO6)cc4)cnc3[nH]2)c1` yielded a melting point of 121 to 122 °C.
`COCc1c(C(=O)O)ncc2[nH]c3c(c12)CCCC3` gave a melting point of over 260 °C.
`COC(=O)c1c(S(=O)C(C)C)c2cc(OC)ccc2n1C` (stereo unspecified) showed a melting point of 130 to 134 °C.
`S=C(NCCc1ccccc1)N1CCN(c2cnccn2)CC1` gave a melting point of 162 to 163 °C.
In the case of `CCCCc1nc2ccccn2c(=O)c1-c1ccc(N[C@@H]2CCN(C(=O)OC(C)(C)C)C2)cc1C`, the melting point is reported as 162 to 168 °C.
For `CCCCC(CC)COc1ccc(C=C2C(=O)C3CCN2CC3)cc1` (stereo unspecified), the melting point was 37 °C.
With `CC1(C)Cc2c(N)c(Cl)cc(C(=O)NCCC34CCCN3CCC4)c2O1` the melting point was 189 to 191 °C.
`CC(NC(=O)CCCl)c1ccc(Cl)cc1` (stereo unspecified) gave a melting point of 86 to 91 °C.
`COc1ccn2nc(-c3ccc(F)cc3)c(-c3ccc(=O)n(C)n3)c2c1` gave a melting point of 221 to 222 °C.
`COCC1Cc2c(Cl)c(C)cc([N+](=O)[O-])c2O1` (stereo unspecified) showed a melting point of 117 to 119 °C.
For `O=C1Cc2cccc(Oc3ccccc3O)c2O1`, the melting point was 150 to 152 °C.
For `Cc1csc2nc(-c3ccc(C(=O)O)cc3)nc(Cc3ccc4c(c3)OCO4)c12`, the melting point was 250 °C.
In the case of `CN(C(=O)c1ccc2nonc2c1)C1CCC(F)(F)CC1`, the melting point is reported as 137 to 138 °C.
Work on `O=C(O)[C@H](CCc1ccc(F)cc1F)NC(=O)C(F)(F)F` yielded a melting point of 62 to 83.5 °C.
Work on `CC(C)(C)OC(=O)N1CCC2(CC1)CC(=O)N(OCCO)C2=O` yielded a melting point of 97 to 98 °C.
With `COc1ccc(S(=O)(=O)N(CC(N)=O)c2ccc(F)cc2C(O)c2ccccc2Cl)cc1OC` (stereo unspecified) the melting point was 232 °C.
Work on `O=C(O)CN1CCN(CCNC(=O)c2cc3ccc(C4OC(CO)C(O)C(O)C4O)cc3oc2=O)CC1` (stereo unspecified) yielded a melting point of 140 to 143 °C.
For `CN(C)CCNC(=O)C(Sc1nc2cc(Cl)ccc2s1)c1ccccc1` (stereo unspecified), the melting point was 108 to 109 °C.
With `Brc1ccc(OCc2ccc3ccccc3c2)nc1` the melting point was 83 to 85 °C.
